Data reported in patent publication US20030050192A1, “Herbicidal composition” (priority 1998, published 2003).
“And” between values parts separate entries of the source, which are not always exact repeats. Equal values may be shown once.

Experiments:
Format in all cases: in vivo
Conditions in all cases: ten days after application
[1] = system: Raphanus; assay: Example B2: post-emergent application of herbicide of formula I with/without safener, greenhouse, Raphanus
[2] = system: Raphanus; assay: Example B3: post-emergent application of herbicide of formula I with/without safener, greenhouse, Raphanus
[3] = system: Wheat; assay: Example B1: post-emergent application of herbicide of formula I with/without safener, greenhouse, wheat
Description: Post-emergent Applications of Mixtures of a Herbicide of Formula I with a Safener of Formulae IIa to IIq to Cereals
Under greenhouse conditions, wheat is grown in plastic pots to the 2.5-leaf stage. In this stage, both the herbicide of formula I alone and the mixture of the herbicide with a safener of formulae IIa to IIq are applied to the test plants. The test substances (Formulation Examples F3 a) and b)) are applied as aqueous suspension with 500 l water/ha. Ten days after the application, the results are evaluated on a percent scale.

[4] = system: Barley; assay: Example B2: post-emergent application of herbicide of formula I with/without safener, greenhouse, barley
Description: Post-emergent Applications of Mixtures of a Herbicide of Formula I with a Safener of Formulae IIa to IIq to barley
Under greenhouse conditions, barley is grown in plastic pots to the 2.5-leaf stage. In this stage, both the herbicide of formula I alone and the mixture of the herbicide with a safener of formulae IIa to IIq are applied to the test plants. The test substances (Formulation Examples F3 a) and b)) are applied as aqueous suspension with 500 l water/ha. Ten days after the application, the results are evaluated on a percent scale.

[5] = system: Setaria; assay: Example B2: post-emergent application of herbicide of formula I with/without safener, greenhouse, Setaria
[6] = system: Emex; assay: Example B1: post-emergent application of herbicide of formula I with/without safener, greenhouse, Emex
[7] = system: Setaria; assay: Example B3: post-emergent application of herbicide of formula I with/without safener, greenhouse, Setaria
[8] = system: Chenopodium; assay: Example B1: post-emergent application of herbicide of formula I with/without safener, greenhouse, Chenopodium
[9] = system: Emex; assay: Example B3: post-emergent application of herbicide of formula I with/without safener, greenhouse, Emex
[10] = system: Emex; assay: Example B2: post-emergent application of herbicide of formula I with/without safener, greenhouse, Emex
[11] = system: Chenopodium; assay: Example B2: post-emergent application of herbicide of formula I with/without safener, greenhouse, Chenopodium
[12] = system: Raphanus; assay: Example B1: post-emergent application of herbicide of formula I with/without safener, greenhouse, Raphanus
[13] = system: Chenopodium; assay: Example B3: post-emergent application of herbicide of formula I with/without safener, greenhouse, Chenopodium
[14] = system: Durum wheat; assay: Example B3: post-emergent application of herbicide of formula I with/without safener, greenhouse, durum wheat
Description: Post-emergent Applications of Mixtures of a Herbicide of Formula I with a Safener of Formulae IIa to IIq to Durum Wheat.
Under greenhouse conditions, durum wheat is grown in plastic pots to the 2.5-leaf stage. In this stage, both the herbicide of formula I alone and the mixture of the herbicide with a safener of formulae IIa to IIq are applied to the test plants. The test substances (Formulation Examples F3 a) and b)) are applied as aqueous suspension with 500 l water/ha. Ten days after the application, the results are evaluated on a percent scale.

[15] = system: Setaria; assay: Example B1: post-emergent application of herbicide of formula I with/without safener, greenhouse, Setaria
[16] = Herbicide of formula 1 alone 15 g/ha
[17] = Herbicide of formula 1 alone 60 g/ha
[18] = Herbicide of formula 1 alone 250 g/ha
[19] = Herbicide of formula 1 60 g/ha + safener 15 g/ha
[20] = Herbicide of formula 1 15 g/ha + safener 4 g/ha
[21] = Herbicide of formula 1 250 g/ha + safener 60 g/ha

COc1nn(C(=O)NS(=O)(=O)c2ccccc2OC(F)(F)F)c(=O)n1C [Herbicide of formula 1]
herbicidal effect on Raphanus, percent scale [1, 16]: 80% | herbicidal effect on Raphanus, percent scale [1, 17]: 80% | herbicidal effect on Raphanus, percent scale [2, 18]: 90% | damage to Wheat, percent scale [3, 16]: 10% | damage to Wheat, percent scale [3, 17]: 20% | damage to Barley, percent scale [4, 16]: 30% | damage to Barley, percent scale [4, 17]: 40% | herbicidal effect on Setaria, percent scale [5, 16]: 70% | herbicidal effect on Setaria, percent scale [5, 17]: 80% | herbicidal effect on Emex, percent scale [6, 16]: 80% | herbicidal effect on Emex, percent scale [6, 17]: 90% | herbicidal effect on Setaria, percent scale [7, 18]: 80% | herbicidal effect on Chenopodium, percent scale [8, 16]: 90% and 80% | herbicidal effect on Chenopodium, percent scale [8, 17]: 90% | herbicidal effect on Emex, percent scale [9, 18]: 90% | herbicidal effect on Emex, percent scale [10, 16]: 80% | herbicidal effect on Emex, percent scale [10, 17]: 90% | herbicidal effect on Chenopodium, percent scale [11, 16]: 90% | herbicidal effect on Chenopodium, percent scale [11, 17]: 90% | herbicidal effect on Raphanus, percent scale [12, 16]: 80% | herbicidal effect on Raphanus, percent scale [12, 17]: 80% | herbicidal effect on Chenopodium, percent scale [13, 18]: 90% | damage to Durum wheat, percent scale [14, 18]: 30% | herbicidal effect on Setaria, percent scale [15, 16]: 70% | herbicidal effect on Setaria, percent scale [15, 17]: 80%

CCOC(=O)C1=NN(c2ccc(Cl)cc2Cl)C(C)(C(=O)OCC)C1 (stereo not shown) [Safener no. 3,03]
herbicidal effect on Raphanus, percent scale [1, 19]: 80% | damage to Wheat, percent scale [3, 20]: 5% | damage to Barley, percent scale [4, 19]: 30% | herbicidal effect on Setaria, percent scale [5, 19]: 80% | herbicidal effect on Emex, percent scale [6, 20]: 90% | herbicidal effect on Chenopodium, percent scale [8, 20]: 90% | herbicidal effect on Emex, percent scale [10, 19]: 90% | herbicidal effect on Chenopodium, percent scale [11, 19]: 80% | herbicidal effect on Raphanus, percent scale [12, 20]: 80% | herbicidal effect on Setaria, percent scale [15, 20]: 70%

CCCCCC(C)OC(=O)COc1ccc(Cl)c2cccnc12 (stereo not shown) [Safener no. 1,01]
damage to Wheat, percent scale [3, 20]: 5% | herbicidal effect on Emex, percent scale [6, 20]: 90% | herbicidal effect on Chenopodium, percent scale [8, 20]: 90% | herbicidal effect on Raphanus, percent scale [12, 20]: 80% | herbicidal effect on Setaria, percent scale [15, 20]: 70%

CCOC(=O)c1nc(C(Cl)(Cl)Cl)n(-c2ccc(Cl)cc2Cl)n1 [Safener no. 2,05]
herbicidal effect on Raphanus, percent scale [1, 19]: 90% | damage to Barley, percent scale [4, 19]: 30% | herbicidal effect on Setaria, percent scale [5, 19]: 80% | herbicidal effect on Emex, percent scale [10, 19]: 90% | herbicidal effect on Chenopodium, percent scale [11, 19]: 90%

FC(F)(F)C(=NOCC1OCCO1)c1ccc(Cl)cc1 [Safener no. 6.02]
herbicidal effect on Raphanus, percent scale [1, 19]: 80% | damage to Wheat, percent scale [3, 19]: 10% | damage to Barley, percent scale [4, 19]: 30% | herbicidal effect on Setaria, percent scale [5, 19]: 80% | herbicidal effect on Emex, percent scale [6, 19]: 90% | herbicidal effect on Chenopodium, percent scale [8, 19]: 80% | herbicidal effect on Emex, percent scale [10, 19]: 90% | herbicidal effect on Chenopodium, percent scale [11, 19]: 80% | herbicidal effect on Raphanus, percent scale [12, 19]: 80% | herbicidal effect on Setaria, percent scale [15, 19]: 80%

COC(=O)c1cc(-c2ccccc2)n(-c2ccccc2Cl)n1 [Safener no. 2,01]
herbicidal effect on Raphanus, percent scale [1, 20]: 80% | herbicidal effect on Raphanus, percent scale [1, 19]: 80% | herbicidal effect on Raphanus, percent scale [2, 21]: 80% | damage to Barley, percent scale [4, 20]: 0% | damage to Barley, percent scale [4, 19]: 10% | herbicidal effect on Setaria, percent scale [5, 20]: 70% | herbicidal effect on Setaria, percent scale [5, 19]: 70% | herbicidal effect on Setaria, percent scale [7, 21]: 80% | herbicidal effect on Emex, percent scale [9, 21]: 90% | herbicidal effect on Emex, percent scale [10, 20]: 90% | herbicidal effect on Emex, percent scale [10, 19]: 90% | herbicidal effect on Chenopodium, percent scale [11, 20]: 90% | herbicidal effect on Chenopodium, percent scale [11, 19]: 90% | herbicidal effect on Chenopodium, percent scale [13, 21]: 95% | damage to Durum wheat, percent scale [14, 21]: 10%
